According to PMC5045383 (Oncotarget, 2016):

How the values were obtained:
[1] = system: MV4-11 cells; assay: Apoptosis effect examination (PARP, Caspase-3 immunoblot); assay type: cell-based, human; conditions: MV4-11, 24 hours; more significantly at 1 μM
From the text: (§1) Cells were then washed in PBS and lysed in cell lysis buffer. PARP, Caspase-3, GAPDH antibodies (Cell signaling Technology) were used for immunoblotting.

[2] = system: MOLM14 cells; assay: as above; assay type: cell-based, human; conditions: MOLM14, 24 hours; more pronounced at 3 μM
From the text: as §1

[3] = system: HL-60; assay: Colony formation (clonogenic) assay; assay type: cell-based, human; conditions: HL-60, 15 days
Procedure: In brief, 1 mL of 3% agarose combined with 1 mL MOLM-13, MOLM-14, MV4-11, PF-382, U937, HL-60 growth media was used as the bottom agar in a 6-well plate. […] Cells were maintained in a humidified 5% CO2 incubator at 37°C for 15 days. On the 15th day, the numbers of colonies in each well were counted and each measurement was performed in triplicate.

[4] = system: FLT3-ITD-F691L; assay: Auto-phosphorylation of FLT3 in transformed BaF3 isogenic cells; assay type: cell-based
From the text: (§2) The following antibodies were purchased from Cell Signaling Technology (Danvers, MA): FLT3 (8F2) Rabbit mAb (#3462), Phospho-FLT3 (Tyr589/591) (30D4) Rabbit mAb (#3464), NF-κB p65 (D14E12) XP® Rabbit mAb (#8242), Phospho-NF-κB p65 (Ser536) (93H1) Rabbit mAb (#3033), Stat5 Antibody (#9363), Phospho-Stat5 (Tyr694) (C71E5) Rabbit mAb (#9314), c-Myc (D84C12) XP® Rabbit mAb (#5605), Akt (pan) (C67E7) Rabbit mAb (#4691), Phospho-Akt (Thr308) (244F9) Rabbit mAb (#4056), Phospho-Akt (Ser473) (D9E) XP® Rabbit mAb (#4060), p44/42 MAPK (Erk1/2) (137F5) Rabbit mAb (#4695), Phospho-p44/42 MAPK (Erk1/2) (Thr202/Tyr204) (D13.14.4E) XP® Rabbit mAb (#4370), GAPDH (D16H11) XP® Rabbit mAb, PARP (46D11) rabbit mAb (#9532), Caspase-3 (8G10) rabbit mAb (#9665), GSK-3β (27C10) Rabbit mAb (#9315), Phospho-GSK-3β (Ser9) (5B3) Rabbit mAb (#9323), FoxO1 (C29H4) Rabbit mAb (#2880), Phospho-FoxO1 (Thr24)/FoxO3a (Thr32)/FoxO4 (Thr28) (4G6) Rabbit mAb (#2599), PRAS40 (D23C7) XP® Rabbit mAb (#2691), Phospho-PRAS40 (Thr246) (C77D7) Rabbit mAb (#2997), 4E-BP1 (#9644), 4E-BP1 (53H11) Rabbit mAb (#9644), p70 S6 Kinase (49D7) Rabbit mAb (#2708), Phospho-p70 S6 Kinase (Thr389) (108D2) Rabbit mAb (#9234). Antibodies were used at 1:1000. Protein lysate preparation and immunoblotting were carried out as previously described.
(§3) Retroviral constructs for BaF3-FLT3 mutants were made based on the pMSCVpuro (Clontech) backbone. For TEL-FLT3 vector, the first 1 kb of human TEL gene with an artificial myristoylation sequence ([…]) was cloned into pMSCVpuro retroviral vector, followed by a 3xFLAG tag sequence and a stop codon. Then the kinase domain coding sequence of FLT3 was inserted in-frame between TEL and 3× FLAG sequences. For full-length expression vectors, the coding sequences of FLT3 variants were directly cloned in pMSCVpuro vector with a 3X FLAG tag at the C-terminal end. All mutagenesis studies were performed using the QuikChange Site-Directed Mutagenesis Kit (Stratagene) following the manufacturer's instructions. […]

[5] = system: FLT3-ITD; assay: as above; assay type: cell-based
From the text: as §2, §3

[6] = system: FLT3-ITD-D835Y; assay: as above; assay type: cell-based
From the text: as §2, §3

[7] = system: BaF3-FLT3-ITD-F691L; assay: Anti-proliferation, BaF3 isogenic cell lines; assay type: cell-based
Procedure: (§4) Cells were grown in 96-well culture plates (3000/well). […] Cell proliferation was determined after 72 hours drug treatment. […] Cell viability was measured with the CellTiter–Glo assay (Promega, USA), according to the manufacturer's instructions, and luminescence was measured in a multi-label reader (Envision, PerkinElmer, USA). Data were normalized to control groups (DMSO) and represented by the mean of three independent measurements with standard error < 20%. GI50 values were calculated using Prism 5.0 (GraphPad Software, San Diego, CA).
(§5) Retroviral constructs for BaF3-FLT3 mutants were made based on the pMSCVpuro (Clontech) backbone. For TEL-FLT3 vector, the first 1 kb of human TEL gene with an artificial myristoylation sequence ([…]) was cloned into pMSCVpuro retroviral vector, followed by a 3xFLAG tag sequence and a stop codon. Then the kinase domain coding sequence of FLT3 was inserted in-frame between TEL and 3× FLAG sequences. For full-length expression vectors, the coding sequences of FLT3 variants were directly cloned in pMSCVpuro vector with a 3X FLAG tag at the C-terminal end. All mutagenesis studies were performed using the QuikChange Site-Directed Mutagenesis Kit (Stratagene) following the manufacturer's instructions. Retrovirus was packaged in HEK293T cells by transfecting FLT3-containing MSCV vectors together with two helper plasmids, virus supernatants were harvested 48 hours after transfection and filtered before infection. Then BaF3 cells were infected with harvested virus supernatants using spinoculation protocol and stable cell lines were obtained by puromycin selection for 48 hours. The IL-3 concentrations in the culture medium were gradually withdrawn until cells were able to grow in the absence of IL-3.

[8] = system: BaF3-FLT3-ITD-D835Y; assay: Anti-proliferation, BaF3 isogenic cell lines; assay type: cell-based
Procedure: as §4, §5

[9] = system: BaF3-FLT3-ITD; assay: Anti-proliferation, BaF3 isogenic cell lines; assay type: cell-based
Procedure: as §4, §5

[10] = system: BaF3-TEL-FLT3-wt; assay: Anti-proliferation, BaF3 isogenic cell lines; assay type: cell-based
Procedure: as §4, §5

[11] = system: BaF3-FLT3-D835Y; assay: Anti-proliferation, BaF3 isogenic cell lines; assay type: cell-based
Procedure: as §4, §5

In the case of Cc1[nH]nc2ccc(-c3cncc(OC[C@@H](N)Cc4ccccc4)c3)cc12 [A674563], the “concentration at which apoptosis was induced” value [1] is reported as 0.3 µM, the “concentration at which induction of apoptosis was evident” value [2] is reported as 1 µM and the EC50 [3] is reported as 387 nM. The EC50 [4] was 400 nM, the EC50 [5] was 85 nM and the EC50 [6] was 1260 nM. For the same compound, the GI50 [7] was 430 nM, the GI50 [8] was 420 nM and the GI50 [9] was 88 nM. For the same compound, the GI50 [10] was 1000 nM and the GI50 [11] was 45 nM.
